From patent US20210345609A1, “AMINOCARBOXYLIC ACID CHELATING AGENT WITH ANTIFUNGAL ACTIVITY AND SYNERGISTIC USE THEREOF WITH OTHER STERILANTS” (priority 2020, published 2021)
Values after ≈ are worked out from the molar mass of the structure shown. Read-outs that look alike come from different tables or passages of the source.

How the values were obtained:
Trichoderma = test: Hyphae growth rate method (PDA plate method); assay type: cell-based
F. graminearum = test: microbe, parasite or virus in culture; assay type: cell-based
F. verticilloides = test: Spore germination method, indoor toxicity on Fusarium; assay type: cell-based
Botrytis cinerea [1] = test: Indoor in vivo efficacy on Botrytis cinerea, cucumber leaves; details: 4 d, vs control
F. oxysporum = test: Spore germination method, indoor toxicity on Fusarium; assay type: cell-based
Botrytis cinerea [2] = test: Spore germination method on Botrytis cinerea; assay type: cell-based
F. asiaticum = test: Spore germination method, indoor toxicity on Fusarium; assay type: cell-based
Description: Experimental methods and specific experimental steps for indoor toxicology determination of Fusarium were as follows:
Step (1): Collection of spores. Five plates (5 mm) evenly distributed on the edge of a medium for Fusarium cultured at 25° C. for 3 d were taken and placed in the CMC medium. After culture under shaking at 175 rpm and 25° C. for 5 d, a filtrate was collected with three layers of sterile lens-cleaning paper. Centrifuging was carried out at 10,000 rpm for 10 min. Washing was carried out twice with sterile water (10,000 rpm, 10 min/time). A spore concentration was adjusted to 1×10^4 ml^1.
Step (2): Setting of concentration gradients of drugs. […] Drugs and spore solutions were mixed, drawn to a cell culture plate and incubated in a thermostat incubator at 25° C. for a period of time.
Step (3): Investigation results and statistical analysis. When a spore germination rate of control group was >90%, spore germination was observed and analyzed statistically.
Spore germination rate (%)=number of germinated spores/number of inspected spores×100
Corrected germination rate (%)=(germination rate for control−germination rate for treatment)/([…])×100

Penicillium = test: Hyphae growth rate method (PDA plate method); assay type: cell-based
Pyricularia oryzae = test: microbe, parasite or virus in culture; assay type: cell-based
Fusarium Fg2021 = test: Indoor in vivo efficacy on Fusarium, wheat coleoptiles; design: species or system Fusarium Fg2021 on wheat (Yumai 35) seedlings; details: Fg2021, 7 d, vs control
Description: Seeds of Yumai 35 were sterilized with 0.1% mercury dichloride for 5 min, rinsed with sterile water for 3 times and immersed for 2 h. The seeds were evenly placed in plastic boxes laid with double layers of sterile filter paper with 30 seeds a box. Cultivation was carried out at 25° C. with 90% humidity and a cycle of 12 h light and 12 h dark in a light incubator for 2 d. […] 12 h later, tips of the coleoptiles were cut. Cut wounds were inoculated with 5 μL of 5×10^5 cells/mL Fg2021 spore solution respectively. Cultivation was carried out in the light incubator. 7 d later, length of disease spot was investigated.

pathogenic Phytophthora = test: Hyphae growth rate method (PDA plate method); assay type: cell-based
Text: Step 1): Setting of concentration gradients of drugs.
Step 2): Determination of EC50 values of drugs against pathogenic Phytophthora with a hyphae growth rate method (PDA plate method)

wheat scab (Fg2021) = assay type: in vivo; details: wheat at flowering, vs control group
F. solani = test: Spore germination method, indoor toxicity on Fusarium; assay type: cell-based
Pyricularia oryzae Guy11 = assay type: in vivo, Pyricularia oryzae Guy 11 on barley leaves; details: Guy11, 6 d
[3] = 15 μM sprayed on wheat coleoptiles
[4] = 7.5 mM sprayed on wheat coleoptiles

Compound: O=C(O)CN(CCN(CC(=O)O)CC(=O)O)CCN(CC(=O)O)CC(=O)O [DTPA, diethylenetriaminepentaacetic acid]
- EC50 (Trichoderma; hyphae growth rate): 7.6421 µg/mL (≈ 19.4 µM)
- EC50 (F. graminearum; F. graminearum, spore germination): 16.22 µg/mL (≈ 41.2 µM)
- EC50 (F. verticilloides; F. verticilloides, spore germination): 18.82 µg/mL (≈ 47.8 µM)
- disease spots (Botrytis cinerea [1]; 10 mM sprayed on cucumber leaves): significantly shorter disease spots
- EC50 (F. oxysporum; F. oxysporum, spore germination): 17.77 µg/mL (≈ 45.2 µM)
- EC50 (Botrytis cinerea [2]; spore germination): 1.85 µg/mL (≈ 4.7 µM)
- EC50 (F. asiaticum): 8.76 µg/mL (≈ 22.3 µM)
- EC50 (Penicillium; hyphae growth rate): 4.3704 µg/mL (≈ 11.1 µM)
- EC50 (Pyricularia oryzae): 9.45 µg/mL (≈ 24 µM)
- length of disease spot (Fusarium Fg2021; [3]): significantly shorter disease spots
- EC50 (pathogenic Phytophthora): 20.35 µg/mL (≈ 51.7 µM)
- disease of wheat ears (diseased spikelets) (wheat scab (Fg2021); 7 g ha^−1, field): significantly lighter disease
- EC50 (F. solani; F. solani, spore germination): 17.80 µg/mL (≈ 45.3 µM)

Compound: O=C([O-])CN(CCN(CC(=O)[O-])CC(=O)[O-])CCN(CC(=O)[O-])CC(=O)[O-].[H+].[H+].[Na+].[Na+].[Na+] [DTPANa3]
- disease spots (Pyricularia oryzae Guy11; 10 mM sprayed on barley leaves): significantly reduced disease spots
- EC50 (Botrytis cinerea [2]; spore germination): 1.88 µg/mL

Compound: O=C([O-])CN(CCN(CC(=O)[O-])CC(=O)[O-])CCN(CC(=O)[O-])CC(=O)[O-].[Na+].[Na+].[Na+].[Na+].[Na+] [DTPANa5]
- EC50 (Pyricularia oryzae): 9.32 µg/mL
- length of disease spot (Fusarium Fg2021; [3]): significantly shorter disease spots

Compound: O=C(O)CN(CCN(CC(=O)O)CC(=O)O)CC(=O)O [EDTA, ethylenediaminetetraacetic acid]
- EC50 (Trichoderma): 6.12 µg/mL (≈ 20.9 µM)
- EC50 (F. graminearum; Fusarium graminearum): 17.8 µg/mL (≈ 60.8 µM)
- EC50 (F. verticilloides): 19 µg/mL (≈ 65.1 µM)
- disease spots (Botrytis cinerea [1]; 25 mM sprayed on cucumber leaves): significantly shorter disease spots
- EC50 (F. oxysporum; Fusarium oxysporum): 17.7 µg/mL (≈ 60.5 µM)
- EC50 (Botrytis cinerea [2]): 1.63 µg/mL (≈ 5.58 µM)
- EC50 (F. asiaticum; read-out: EC50): 8.76 µg/mL (≈ 30 µM)
- EC50 (Penicillium): 3.15 µg/mL (≈ 10.8 µM)
- EC50 (Pyricularia oryzae): 9.75 µg/mL (≈ 33.4 µM)
- length of disease spot (Fusarium Fg2021; [4]): significantly shorter disease spots
- EC50 (pathogenic Phytophthora; read-out: EC50): 18.2 µg/mL (≈ 62.4 µM)
- disease of wheat ears (diseased spikelets) (wheat scab (Fg2021); 7 g ha^−1, field): significantly lighter disease
- EC50 (F. solani; Fusarium solani): 17.5 µg/mL (≈ 59.9 µM)

Compound: O=C([O-])CN(CCN(CC(=O)[O-])CC(=O)[O-])CC(=O)[O-].[Mg+2].[Mg+2] [EDTAMg2]
- disease spots (Botrytis cinerea [1]; 30 mM sprayed on cucumber leaves): significantly shorter disease spots

Compound: O=C([O-])CN(CCN(CC(=O)[O-])CC(=O)O)CC(=O)O.[Na+].[Na+] [EDTANa2]
- disease spots (Pyricularia oryzae Guy11; 30 mM sprayed on barley leaves): significantly reduced disease spots
- EC50 (Botrytis cinerea [2]; spore germination): 1.12 µg/mL
- EC50 (pathogenic Phytophthora): 19.39 µg/mL

Compound: O=C([O-])CN(CCN(CC(=O)[O-])CC(=O)O)CC(=O)[O-].[Na+].[Na+].[Na+] [EDTANa3]
- EC50 (pathogenic Phytophthora): 17.56 µg/mL

Compound: O=C([O-])CN(CCN(CC(=O)[O-])CC(=O)[O-])CC(=O)[O-].[Na+].[Na+].[Na+].[Na+] [EDTANa4]
- EC50 (Pyricularia oryzae): 9.01 µg/mL
- length of disease spot (Fusarium Fg2021; [4]): significantly shorter disease spots

Compound: COC(=O)Nc1nc2ccccc2[nH]1 [carbendazim, reference compound]
- disease of wheat ears (diseased spikelets) (wheat scab (Fg2021); 140 g ha^−1, field): significantly lighter disease
